Source: publication PMC8409970, “In vitro and in silico studies of bis (indol-3-yl) methane derivatives as potential α-glucosidase and α-amylase inhibitors” (Journal of Enzyme Inhibition and Medicinal Chemistry, 2021)

melting point [°C] | Compound
246.2 to 250.1 | Cc1cccc2[nH]cc(C(C#N)c3c[nH]c4cccc(C)c34)c12 [Compound 5j, 2,2-Bis(4-methyl-1H-indol-3-yl)acetonitrile]
178.4 to 183.7 | Cc1ccc2c(C(C#N)c3c[nH]c4cc(C)ccc34)c[nH]c2c1 [Compound 5l, 2,2-Bis(6-methyl-1H-indol-3-yl)acetonitrile]
182.7 to 187.5 | N#CC(c1c[nH]c2ccc(F)cc12)c1c[nH]c2ccc(F)cc12 [Compound 5b, 2,2-Bis(5-fluoro-1H-indol-3-yl)acetonitrile]
230 to 235.8 | N#CC(c1c[nH]c2cccc(Cl)c12)c1c[nH]c2cccc(Cl)c12 [Compound 5c, 2,2-Bis(4-chloro-1H-indol-3-yl)acetonitrile]
231.2 to 236.4 | Cc1ccc2[nH]c(C)c(C(C#N)c3c(C)[nH]c4ccc(C)cc34)c2c1 [Compound 5o, 2,2-Bis(2,5-dimethyl-1H-indol-3-yl)acetonitrile]
162.2 to 168.8 | N#CC(c1c[nH]c2c(Cl)cccc12)c1c[nH]c2c(Cl)cccc12 [Compound 5f, 2,2-Bis(7-chloro-1H-indol-3-yl)acetonitrile]
70.3 to 74.6 | Cn1cc(C(C#N)c2cn(C)c3ccccc23)c2ccccc21 [Compound 5r, 2,2-Bis(1-methyl-1H-indol-3-yl)acetonitrile]
205.1 to 210.1 | Cc1ccc2[nH]cc(C(C#N)c3c[nH]c4ccc(C)cc34)c2c1 [Compound 5k, 2,2-Bis(5-methyl-1H-indol-3-yl)acetonitrile]
183.4 to 188 | Cc1[nH]c2ccc(F)cc2c1C(C#N)c1c(C)[nH]c2ccc(F)cc12 [Compound 5n, 2,2-Bis(5-fluoro-2-methyl-1H-indol-3-yl)acetonitrile]
173.9 to 178.3 | N#CC(c1c[nH]c2ccccc12)c1c[nH]c2ccccc12 [Compound 5a, 2,2-Di(1H-indol-3-yl)acetonitrile]
118.5 to 123 | COc1ccc2[nH]cc(C(C#N)c3c[nH]c4ccc(OC)cc34)c2c1 [Compound 5p, 2,2-Bis(5-methoxy-1H-indol-3-yl)acetonitrile]
259.6 to 266.9 | COC(=O)c1ccc2[nH]cc(C(C#N)c3c[nH]c4ccc(C(=O)OC)cc34)c2c1 [Compound 5q, Dimethyl 3,3'-(cyanomethylene)bis(1H-indole-5-carboxylate)]
168 to 173.4 | N#CC(c1c[nH]c2ccc(Cl)cc12)c1c[nH]c2ccc(Cl)cc12 [Compound 5d, 2,2-Bis(5-chloro-1H-indol-3-yl)acetonitrile]
135.7 to 140.8 | COC(=O)CNc1ccc(C(C#N)c2ccc(NCC(=O)OC)cc2)cc1 [Compound 7c, Dimethyl 2,2’-(((cyanomethylene)bis(4,1-phenylene))bis(azanediyl))diacetate]
87.5 to 93.4 | CCOC(=O)CNc1ccc(C(C#N)c2ccc(NCC(=O)OCC)cc2)cc1 [Compound 7b, Diethyl 2,2’-(((cyanomethylene)bis(4,1-phenylene))bis(azanediyl))diacetate]
214.1 to 219.4 | Cc1cccc2c(C(C#N)c3c[nH]c4c(C)cccc34)c[nH]c12 [Compound 5m, 2,2-Bis(7-methyl-1H-indol-3-yl)acetonitrile]
231.2 to 236.6 | Cc1[nH]c2ccccc2c1C(C#N)c1c(C)[nH]c2ccccc12 [Compound 5i, 2,2-Bis(2-methyl-1H-indol-3-yl)acetonitrile]
